pIC50: −log10 of the molar value.
Key:
[1] = biological target: T1, Ephrin type-A receptor 2 (Homo sapiens, UniProt P29317); assay: Inhibition of EphA2 (unknown origin) pre-incubated with enzyme for 10 mins before adding peptide substrate and ATP using TK-substrate-biotin and SEB by time-resolved fluorescence resonance energy transfer assay
[2] = biological target: Epidermal growth factor receptor (Homo sapiens) (UniProt P00533); assay: Inhibition of EGFR (unknown origin) at 1 uM
[3] = biological target: Receptor tyrosine-protein kinase erbB-2 (Homo sapiens) (UniProt P04626); assay: Inhibition of HER2 (unknown origin) at 1 uM
[4] = biological target: Insulin-like growth factor 1 receptor (Homo sapiens) (UniProt P08069); assay: Inhibition of IGF1R (unknown origin) at 1 uM
[5] = biological target: Insulin receptor (Homo sapiens) (UniProt P06213); assay: Inhibition of InsR (unknown origin) at 1 uM
[6] = biological target: Vascular endothelial growth factor receptor 2 (Homo sapiens) (UniProt P35968); assay: Inhibition of KDR (unknown origin) at 1 uM
[7] = biological target: Platelet-derived growth factor receptor alpha (Homo sapiens) (UniProt P16234); assay: Inhibition of PDGFRalpha (unknown origin) at 1 uM
[8] = biological target: Mitogen-activated protein kinase 1 (Homo sapiens) (UniProt P28482); assay: Inhibition of ERK2 (unknown origin) at 1 uM
[9] = biological target: Glycogen synthase kinase-3 beta (Homo sapiens) (UniProt P49841); assay: Inhibition of GSK3beta (unknown origin) at 1 uM
[10] = biological target: Mitogen-activated protein kinase 8 (Homo sapiens) (UniProt P45983); assay: Inhibition of JNK1 (unknown origin) at 1 uM
[11] = biological target: Mitogen-activated protein kinase 10 (Homo sapiens) (UniProt P53779); assay: Inhibition of JNK3 (unknown origin) at 1 uM
[12] = biological target: Mitogen-activated protein kinase 14 (Homo sapiens) (UniProt Q16539); assay: Inhibition of p38alpha (unknown origin) at 1 uM
[13] = biological target: Mitogen-activated protein kinase 11 (Homo sapiens) (UniProt Q15759); assay: Inhibition of p38beta (unknown origin) at 1 uM
[14] = biological target: T1, Ephrin type-A receptor 2; assay: Inhibition of EphA2 (unknown origin) expressed in […] cells assessed as reduction in wound closure after 72 hrs by phase contrast microscopy based would healing assay; format: cell-based
[15] = biological target: T1, Ephrin type-A receptor 2; assay: Inhibition of EphA2 (unknown origin) at 10 uM pre-incubated with enzyme for 10 mins before adding peptide substrate and ATP using TK-substrate-biotin and SEB by time-resolved fluorescence resonance energy transfer assay

T1 sequence (P29317 whole entry): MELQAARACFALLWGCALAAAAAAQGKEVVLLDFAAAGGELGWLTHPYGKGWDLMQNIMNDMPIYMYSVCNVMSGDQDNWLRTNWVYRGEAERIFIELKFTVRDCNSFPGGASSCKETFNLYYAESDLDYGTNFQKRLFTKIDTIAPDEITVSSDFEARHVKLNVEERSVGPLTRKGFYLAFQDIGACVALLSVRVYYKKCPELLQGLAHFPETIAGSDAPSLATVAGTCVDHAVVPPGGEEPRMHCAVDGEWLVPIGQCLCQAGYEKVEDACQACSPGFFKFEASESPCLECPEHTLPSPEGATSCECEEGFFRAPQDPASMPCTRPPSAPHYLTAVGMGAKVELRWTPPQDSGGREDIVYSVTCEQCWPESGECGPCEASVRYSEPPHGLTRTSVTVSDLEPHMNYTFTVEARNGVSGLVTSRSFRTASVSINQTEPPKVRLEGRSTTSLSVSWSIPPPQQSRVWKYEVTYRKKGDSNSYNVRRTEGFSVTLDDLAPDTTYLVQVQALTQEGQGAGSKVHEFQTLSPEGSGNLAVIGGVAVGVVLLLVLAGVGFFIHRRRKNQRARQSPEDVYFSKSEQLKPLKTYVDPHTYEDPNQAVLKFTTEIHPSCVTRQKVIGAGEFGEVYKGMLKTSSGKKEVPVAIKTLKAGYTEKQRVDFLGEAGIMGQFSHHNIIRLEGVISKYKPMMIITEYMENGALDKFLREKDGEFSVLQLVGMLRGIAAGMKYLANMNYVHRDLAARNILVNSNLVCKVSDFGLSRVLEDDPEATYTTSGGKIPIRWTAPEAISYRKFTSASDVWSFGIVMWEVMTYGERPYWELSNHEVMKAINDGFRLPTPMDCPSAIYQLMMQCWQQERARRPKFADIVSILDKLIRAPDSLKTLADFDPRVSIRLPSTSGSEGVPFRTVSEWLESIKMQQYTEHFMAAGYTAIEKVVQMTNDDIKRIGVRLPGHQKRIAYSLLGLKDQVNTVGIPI
Chain of Mitogen-activated protein kinase 10 (Homo sapiens) (P53779 whole entry): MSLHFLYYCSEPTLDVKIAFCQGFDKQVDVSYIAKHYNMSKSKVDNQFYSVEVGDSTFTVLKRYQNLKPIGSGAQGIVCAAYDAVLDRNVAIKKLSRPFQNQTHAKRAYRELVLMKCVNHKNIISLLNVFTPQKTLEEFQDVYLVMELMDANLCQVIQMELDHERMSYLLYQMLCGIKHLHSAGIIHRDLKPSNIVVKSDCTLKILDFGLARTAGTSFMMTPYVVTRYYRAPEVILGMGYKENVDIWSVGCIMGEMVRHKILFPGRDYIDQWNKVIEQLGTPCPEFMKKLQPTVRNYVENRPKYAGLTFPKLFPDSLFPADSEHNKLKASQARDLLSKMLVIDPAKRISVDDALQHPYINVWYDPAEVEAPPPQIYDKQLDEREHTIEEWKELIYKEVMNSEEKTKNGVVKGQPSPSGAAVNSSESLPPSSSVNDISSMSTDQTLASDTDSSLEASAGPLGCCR
Chain of Mitogen-activated protein kinase 8 (Homo sapiens) (P45983 whole entry): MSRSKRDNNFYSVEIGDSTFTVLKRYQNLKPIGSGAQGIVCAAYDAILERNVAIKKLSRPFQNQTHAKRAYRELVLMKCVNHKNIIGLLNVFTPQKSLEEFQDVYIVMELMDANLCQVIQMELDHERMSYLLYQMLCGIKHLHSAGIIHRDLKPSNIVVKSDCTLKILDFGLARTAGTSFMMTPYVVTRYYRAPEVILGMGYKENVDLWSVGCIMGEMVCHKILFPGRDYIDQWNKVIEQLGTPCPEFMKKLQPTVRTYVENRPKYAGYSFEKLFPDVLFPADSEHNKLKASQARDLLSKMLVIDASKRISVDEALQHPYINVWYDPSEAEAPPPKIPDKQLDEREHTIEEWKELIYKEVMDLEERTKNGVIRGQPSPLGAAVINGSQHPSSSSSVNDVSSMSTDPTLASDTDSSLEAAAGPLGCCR
Chain of Receptor tyrosine-protein kinase erbB-2 (Homo sapiens) (P04626 whole entry): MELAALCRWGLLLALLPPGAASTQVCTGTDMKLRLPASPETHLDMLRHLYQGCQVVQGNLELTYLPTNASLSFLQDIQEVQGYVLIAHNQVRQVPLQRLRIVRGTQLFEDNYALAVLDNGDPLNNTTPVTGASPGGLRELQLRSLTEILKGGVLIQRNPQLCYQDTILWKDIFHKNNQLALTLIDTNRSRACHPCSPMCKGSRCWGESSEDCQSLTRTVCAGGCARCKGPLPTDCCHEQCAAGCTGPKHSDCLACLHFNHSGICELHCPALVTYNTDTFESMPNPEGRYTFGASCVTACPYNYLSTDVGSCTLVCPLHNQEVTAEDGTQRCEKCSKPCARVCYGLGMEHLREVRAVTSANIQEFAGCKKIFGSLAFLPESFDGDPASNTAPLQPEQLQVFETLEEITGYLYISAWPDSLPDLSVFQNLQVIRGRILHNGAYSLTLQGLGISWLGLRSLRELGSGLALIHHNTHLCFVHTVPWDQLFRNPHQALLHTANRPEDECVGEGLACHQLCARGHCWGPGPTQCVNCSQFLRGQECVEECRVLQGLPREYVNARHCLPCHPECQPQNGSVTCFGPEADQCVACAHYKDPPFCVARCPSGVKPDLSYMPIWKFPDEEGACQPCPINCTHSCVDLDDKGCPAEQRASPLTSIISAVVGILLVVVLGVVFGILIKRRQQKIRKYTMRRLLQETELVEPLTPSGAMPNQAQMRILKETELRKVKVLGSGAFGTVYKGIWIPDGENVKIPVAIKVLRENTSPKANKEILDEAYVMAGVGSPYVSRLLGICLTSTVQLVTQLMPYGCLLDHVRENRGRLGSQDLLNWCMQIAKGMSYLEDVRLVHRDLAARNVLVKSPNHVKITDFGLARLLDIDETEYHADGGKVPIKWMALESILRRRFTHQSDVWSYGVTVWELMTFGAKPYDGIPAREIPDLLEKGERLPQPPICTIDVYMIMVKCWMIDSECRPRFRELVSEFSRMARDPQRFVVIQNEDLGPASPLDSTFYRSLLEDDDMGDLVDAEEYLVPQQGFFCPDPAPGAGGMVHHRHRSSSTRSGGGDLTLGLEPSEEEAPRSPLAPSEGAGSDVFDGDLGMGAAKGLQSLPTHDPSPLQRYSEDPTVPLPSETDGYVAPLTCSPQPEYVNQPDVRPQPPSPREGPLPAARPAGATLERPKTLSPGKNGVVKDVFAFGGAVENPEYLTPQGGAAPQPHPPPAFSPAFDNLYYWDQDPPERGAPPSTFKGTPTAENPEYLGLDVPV
Chain of Insulin receptor (Homo sapiens) (P06213 28-758 limits assumed): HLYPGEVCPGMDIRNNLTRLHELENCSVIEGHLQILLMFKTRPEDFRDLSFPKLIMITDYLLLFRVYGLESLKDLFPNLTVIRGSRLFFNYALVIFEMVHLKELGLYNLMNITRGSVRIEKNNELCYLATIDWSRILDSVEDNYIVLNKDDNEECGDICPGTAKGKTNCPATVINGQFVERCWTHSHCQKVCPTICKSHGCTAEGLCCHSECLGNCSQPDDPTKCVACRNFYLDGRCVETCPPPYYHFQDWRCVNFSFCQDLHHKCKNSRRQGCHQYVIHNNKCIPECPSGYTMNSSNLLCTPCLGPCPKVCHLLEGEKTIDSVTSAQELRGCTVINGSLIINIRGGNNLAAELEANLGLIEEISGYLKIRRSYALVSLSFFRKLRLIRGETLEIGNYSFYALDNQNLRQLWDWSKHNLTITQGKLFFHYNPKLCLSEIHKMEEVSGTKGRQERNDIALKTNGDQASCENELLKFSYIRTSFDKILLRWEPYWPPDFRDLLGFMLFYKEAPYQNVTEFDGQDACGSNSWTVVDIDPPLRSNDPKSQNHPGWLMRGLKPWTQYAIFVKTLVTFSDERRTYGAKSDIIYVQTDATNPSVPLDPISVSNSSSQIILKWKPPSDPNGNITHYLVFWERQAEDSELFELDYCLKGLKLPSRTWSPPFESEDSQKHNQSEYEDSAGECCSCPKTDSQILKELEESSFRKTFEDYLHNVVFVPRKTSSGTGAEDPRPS
Chain of Insulin receptor (Homo sapiens) (P06213 763-1382 limits assumed): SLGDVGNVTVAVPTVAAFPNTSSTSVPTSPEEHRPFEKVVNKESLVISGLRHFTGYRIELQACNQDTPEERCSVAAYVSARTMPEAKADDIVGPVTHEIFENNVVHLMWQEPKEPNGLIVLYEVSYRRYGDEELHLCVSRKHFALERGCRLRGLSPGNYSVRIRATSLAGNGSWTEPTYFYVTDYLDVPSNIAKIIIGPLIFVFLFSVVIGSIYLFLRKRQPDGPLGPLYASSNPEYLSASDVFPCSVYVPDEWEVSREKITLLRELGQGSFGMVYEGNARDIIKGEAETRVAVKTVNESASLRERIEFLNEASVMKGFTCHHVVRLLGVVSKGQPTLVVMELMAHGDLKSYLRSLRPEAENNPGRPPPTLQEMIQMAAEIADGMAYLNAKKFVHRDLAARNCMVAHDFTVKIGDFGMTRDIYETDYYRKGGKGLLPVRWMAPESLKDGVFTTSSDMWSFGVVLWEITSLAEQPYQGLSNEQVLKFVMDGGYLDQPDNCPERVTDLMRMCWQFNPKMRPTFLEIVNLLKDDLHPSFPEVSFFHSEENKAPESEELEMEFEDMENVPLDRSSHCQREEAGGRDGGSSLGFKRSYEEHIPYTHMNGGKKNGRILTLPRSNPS
Chain of Mitogen-activated protein kinase 11 (Homo sapiens) (Q15759 whole entry): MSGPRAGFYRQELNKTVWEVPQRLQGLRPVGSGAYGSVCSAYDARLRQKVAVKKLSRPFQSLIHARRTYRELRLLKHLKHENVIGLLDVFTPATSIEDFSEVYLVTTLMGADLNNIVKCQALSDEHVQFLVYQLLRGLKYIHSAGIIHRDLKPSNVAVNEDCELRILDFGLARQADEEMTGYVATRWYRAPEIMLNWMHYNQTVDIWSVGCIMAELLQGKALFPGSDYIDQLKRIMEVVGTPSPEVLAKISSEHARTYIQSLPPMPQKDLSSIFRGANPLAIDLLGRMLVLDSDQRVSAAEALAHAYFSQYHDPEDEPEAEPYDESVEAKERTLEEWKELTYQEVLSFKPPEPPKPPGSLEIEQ

Row | SMILES | pIC50 [1] | inhibition [2] | inhibition [3] | inhibition [4] | inhibition [5] | inhibition [6] | inhibition [7] | inhibition [8] | inhibition [9] | inhibition [10] | inhibition [11] | inhibition [12] | inhibition [13] | inhibition [14] | inhibition [15]
1 | COc1cc2c(Nc3ccc(Cl)cc3F)ncnc2cc1OCC1CNCCO1 (stereo not given) | 6.80 | 100% | 22% | 7% | 15% | 76% | 17% | 0% | 11% | 0% | 0% | 16% | 2% | Dose-dependent effect | –
2 | CCCc1ccc(Nc2ncnc3cc(OCC4CNCCO4)c(OC)cc23)cc1 (stereo not given) | – | – | – | – | – | – | – | – | – | – | – | – | – | – | 49%

From ChEMBL document CHEMBL3351289, “4-Substituted quinazoline derivatives as novel EphA2 receptor tyrosine kinase inhibitors” (Bioorg Med Chem Lett, 2014)
